In patent publication US12569471B2, “Method of treatment of CNS disorders” (Supernus Pharmaceuticals, Inc., priority 2009, dated 2026):

Experiments:
[1] = biological target: T1, μ-opioid receptors in the guinea pig ileum (Cavia porcellus, UniProt A0ACM8Q262); test: μ-opioid receptor bioassay, test for agonist activity (twitch contraction amplitude); settings: for agonist activity: decrease in twitch contraction amplitude, +Naloxone / agonist activity: decrease in twitch contraction amplitude: mean, n=2
[2] = biological target: H1 receptor (Homo sapiens, UniProt P35367); settings: background statement; cited from earlier work
[3] = biological target: noradrenergic reuptake transporter (Homo sapiens, UniProt P23975); settings: background statement; cited from earlier work
[4] = biological target: serotonergic reuptake transporter (Homo sapiens, UniProt P31645); settings: background statement; cited from earlier work
[5] = biological target: T1, μ-opioid receptors in the guinea pig ileum; test: μ-opioid receptor bioassay, test for antagonist activity (DAMGO-induced decrease in twitch contraction amplitude); settings: for antagonist activity: response to DAMGO (1.0E−07M) in presence of compound: mean, n=2
[6] = biological target: dopamine reuptake transporter (Homo sapiens, UniProt Q01959); settings: background statement; cited from earlier work
[7] = biological target: T2, human μ-opioid receptor (Homo sapiens, UniProt P35372); test: heterologous competition (displacement) assay and IC50 determination, μ-opioid receptor; type: binding; design: binding at the μ-opioid receptor (specific binding), 1st test / binding at the μ-opioid receptor (specific binding), 2nd Test / binding at the μ-opioid receptor (specific binding), Mean: unit not given here
T2 construct: expressed in transfected cells; host or cells: CHO cell line
Description: (§1) A heterologous competition assay was used to determine the relative affinity of mazindol for opioid receptors. Briefly, recombinant μ-, κ- or δ-opioid receptors were expressed in a CHO cell line. The receptors were then saturated with a tritiated receptor-specific ligand at concentrations known to be saturating. Thereupon, 10 μM mazindol was added to the cells in the presence of non-specific ligand and incubated. In this way, mazindol was allowed to “compete” with the receptor-specific ligand, such that greater displacement (i.e., % inhibition) is indicative of greater binding strength of mazindol at a given receptor. “Specific binding” refers here to the difference in the binding of the ligand to the receptors in the presence or absence of an excess of the mazindol.
For this experiment, a range of mazindol concentrations was selected for the ligand blocking assay. The IC50 was determined using non-linear regression analysis of the competition curves using a Hill equation curve fitting (Y=D+[(A−D)/(1+(C/C50)nH)], where Y=specific binding, D=minimum specific binding, A=maximum specific binding, C=compound concentration, C50=IC50, and nH=slope factor). The inhibition constants Ki were calculated using Cheng Prusoff equation. Ki is defined as the concentration of the competing ligand (mazindol) that bound to half the binding sites at equilibrium in the absence of radioligand or other competitors.

[8] = biological target: T3, Delta2(h) opioid receptor (Homo sapiens, UniProt P41143); test: heterologous competition (displacement) assay, delta opioid receptor; type: binding; settings: 10 μM mazindol; [3H] [D-Ala2, D-Leu5] enkephalin 0.5 nM; 120 min/22° C.
T3 construct: expressed in transfected cells; host or cells: CHO cell line
Description: as §1

[9] = biological target: T4, Kappa (rat) opioid receptor (Rattus norvegicus, UniProt P34975); test: heterologous competition (displacement) assay, kappa opioid receptor; type: binding; settings: 10 μM mazindol; [3H]U 69593 1 nM; 60 min/22° C.
T4 construct: expressed in transfected cells; host or cells: CHO cell line
Description: as §1

## C[C@@H](NC(=O)[C@@H](N)Cc1ccc(O)cc1)C(=O)NCC(=O)N(C)[C@@H](Cc1ccccc1)C(=O)NCCO [DAMGO]
[1]; compound 1.0E−07M + Naloxone (1.0E−07M)
  agonist activity: decrease in twitch contraction amplitude, +Naloxone: −10% of the control response to DAMGO
[1]; compound 1.0E−07 M
  agonist activity: decrease in twitch contraction amplitude: 104% of the control response to DAMGO
[1]; compound 1.0E−08 M
  agonist activity: decrease in twitch contraction amplitude: 62% of the control response to DAMGO
[1]; compound 1.0E−09 M
  agonist activity: decrease in twitch contraction amplitude: 14% of the control response to DAMGO

## OC1(c2ccc(Cl)cc2)c2ccccc2C2=NCCN21 (stereo not shown) [mazindol, 5-(p-chloropheny)-2,5-dihydro-3H-imidazo[2,1-a] isoindol-5-ol]
[2]
  binding at the H1 receptor: moderately potent binding
[3]
  binding activity at noradrenergic reuptake transporter: specific inhibitory binding activity
[4]
  binding activity at serotonergic reuptake transporter: specific inhibitory binding activity
[5]; compound 1.0E−05 M
  antagonist activity: response to DAMGO (1.0E−07M) in presence of compound: 105% of the control response to DAMGO
[5]; compound 1.0E−06 M
  antagonist activity: response to DAMGO (1.0E−07M) in presence of compound: 100% of the control response to DAMGO
[5]; compound 1.0E−07 M
  antagonist activity: response to DAMGO (1.0E−07M) in presence of compound: 100% of the control response to DAMGO
[5]; compound 3.0E−05 M
  antagonist activity: response to DAMGO (1.0E−07M) in presence of compound: 107% of the control response to DAMGO
[5]; compound 3.0E−06 M
  antagonist activity: response to DAMGO (1.0E−07M) in presence of compound: 102% of the control response to DAMGO
[5]; compound 3.0E−07 M
  antagonist activity: response to DAMGO (1.0E−07M) in presence of compound: 100% of the control response to DAMGO
[5]; guinea pig ileum
  Antagonist activity IC50 value: no antagonist effect
  concentrations causing a further decrease in twitch contraction amplitude beyond DAMGO: higher than 1.0E-06 M
  effect on the DAMGO-induced decrease in twitch contraction amplitude: did not reverse the DAMGO-induced decrease in twitch contraction amplitude
[1]; compound 1.0E−05 M
  agonist activity: decrease in twitch contraction amplitude: 94% of the control response to DAMGO
[1]; compound 1.0E−06 M
  agonist activity: decrease in twitch contraction amplitude: 25% of the control response to DAMGO
[1]; compound 1.0E−07 M
  agonist activity: decrease in twitch contraction amplitude: 1% of the control response to DAMGO
[1]; compound 3.0E−05M + Naloxone (1.0E−07M)
  agonist activity: decrease in twitch contraction amplitude, +Naloxone: 5% of the control response to DAMGO
[1]; compound 3.0E−05 M
  agonist activity: decrease in twitch contraction amplitude: 103% of the control response to DAMGO
[1]; compound 3.0E−06 M
  agonist activity: decrease in twitch contraction amplitude: 64% of the control response to DAMGO
[1]; compound 3.0E−07 M
  agonist activity: decrease in twitch contraction amplitude: 9% of the control response to DAMGO
[1]; guinea pig ileum
  effect on twitch contraction amplitude: concentration-dependent decrease in the twitch contraction amplitude
  nature of the binding (agonist or antagonist) at the μ-opioid receptors: behaves as an agonist
  reversal of the agonist-like response by reference antagonist naloxone: fully reversed by naloxone
[1]; read-out: Agonist activity EC50 value, guinea pig ileum, linear regression of concentration-response curve
  EC50: 2000 nM
[6]
  binding activity at dopamine reuptake transporter: specific inhibitory binding activity
[7]
  IC50: 690 nM
  Ki: 280 nM
[7]; 10 μM mazindol, [3H] Ala2-MePhe4-Gly5-Enkephalin 0.5 nM, 120 min/22° C.
  inhibition at 10 µM: 84%
[7]; M (h) (MOP) (agonist site)
  nH (slope factor): 0.8
[7]; mazindol 1.0E−04 M
  binding at the μ-opioid receptor (specific binding), 1st test: 5.8
  binding at the μ-opioid receptor (specific binding), 2nd Test: 7.4
  binding at the μ-opioid receptor (specific binding), Mean: 6.6
[7]; mazindol 1.0E−05 M
  binding at the μ-opioid receptor (specific binding), 1st test: 12.6
  binding at the μ-opioid receptor (specific binding), 2nd Test: 13.0
  binding at the μ-opioid receptor (specific binding), Mean: 12.8
[7]; mazindol 1.0E−06 M
  binding at the μ-opioid receptor (specific binding), 1st test: 42.4
  binding at the μ-opioid receptor (specific binding), 2nd Test: 41.7
  binding at the μ-opioid receptor (specific binding), Mean: 42.0
[7]; mazindol 1.0E−07 M
  binding at the μ-opioid receptor (specific binding), 1st test: 83.2
  binding at the μ-opioid receptor (specific binding), 2nd Test: 83.2
  binding at the μ-opioid receptor (specific binding), Mean: 83.2
[7]; mazindol 3.0E−05 M
  binding at the μ-opioid receptor (specific binding), 1st test: 9.1
  binding at the μ-opioid receptor (specific binding), 2nd Test: 7.6
  binding at the μ-opioid receptor (specific binding), Mean: 8.3
[7]; mazindol 3.0E−06 M
  binding at the μ-opioid receptor (specific binding), 1st test: 24.7
  binding at the μ-opioid receptor (specific binding), 2nd Test: 26.4
  binding at the μ-opioid receptor (specific binding), Mean: 25.5
[7]; mazindol 3.0E−07 M
  binding at the μ-opioid receptor (specific binding), 1st test: 58.2
  binding at the μ-opioid receptor (specific binding), 2nd Test: 60.9
  binding at the μ-opioid receptor (specific binding), Mean: 59.5
[7]; mazindol 3.0E−08 M
  binding at the μ-opioid receptor (specific binding), 1st test: 102.1
  binding at the μ-opioid receptor (specific binding), 2nd Test: 97.5
  binding at the μ-opioid receptor (specific binding), Mean: 99.8
[8]
  inhibition at 10 µM: 14%
[9]
  % Inhib.: 33%
